The test system of one series is HIF1α and HIF2α. Put plainly: HIFα induction in tissues of treated mice (immunoblotting). The series is classed as in vivo, C57BL/6 mice. The following applies: i.p. The procedure:
All animal experiments were performed on male C57BL/6 mice aged 3 months (purchased from Harlan Laboratories, Blackthorn) housed in specific pathogen free conditions with free access to water and standard chow. Mice were injected intraperitonially with the inhibitor (dissolved in Hanks’ buffered saline solution, pH 7.0, 5% DMSO final) or vehicle at the indicated doses for the indicated time as previously described. Tissues from treated mice were harvested and ‘snap frozen’ with liquid nitrogen before being stored at -80°C. For immunoblotting, a portion of the tissues was removed, weighed and homogenised in urea/SDS buffer before being analysed by immunoblotting with HIF1α rabbit polyclonal antibody (10006421, Cayman Chemical, 1:1000) or HIF2α rabbit polyclonal antibody (PM9 [27], 1:1000). For RNA extraction, tissues were ‘snap frozen’ in liquid nitrogen immediately after harvesting, then ground to a fine powder using a cryogenic tissue pulveriser, keeping samples on dry ice at all times and processed for total RNA extraction using the mirVana miRNA isolation kit (AM1560, Life Technologies) according to the manufacturer’s protocol for processing frozen tissues. All animal procedures were compliant with the UK Home Office Animals (Scientific Procedures) Act 1986 and Local Ethical Review Procedures (University of Oxford Medical Sciences Division Ethical Review Committee).
The inhibitors or vehicle controls were injected intraperitonially into wild type C57BL/6 mice and sacrificed after the indicated treatment time before harvesting their tissues to be analysed for HIFα levels by immunoblotting.

The next series has as its target PHD2 (Homo sapiens, UniProt Q9GZT9). Put plainly: Competition-based NMR reporter ligand displacement assay ([13C]-2OG / [13C]-CODD). The format is binding. The following applies: 50 μM apo-PHD2, 400 μM Zn(II), 400 μM competitor. The procedure:
For 2OG displacement assays, selective ^1H-^13C 1D-HSQC experiments were conducted at 700 MHz using a Bruker Avance III spectrometer equipped with an inverse TCI cryoprobe optimized for ^1H observation. The CLIP-HSQC sequence was used (without ^13C decoupling). Typical experimental parameters were as follows: acquisition time 0.58 s, relaxation delay 2 s, number of transients 256−1600. The 1JCH was set to 160 Hz. For the selective version of the experiment, a 6.8 ms Q3 180 degree pulse was used, and selective irradiation was applied at the appropriate [^13C] chemical shift. Three millimeter MATCH tubes with a 160 μL final sample volume were used. Solutions were buffered using Tris-D11 50 mM (pH 7.5) dissolved in 90% H2O and 10% D2O. Assays were conducted at 298 K in solutions typically containing 50 μM apo-PHD2, 400 μM Zn(II), 50 μM 1,2,3,4-[^13C]-2OG or [^13C]-labeled CODD (uniformly [^13C]-labeled at proline-564) and 400 μM competitor (except unlabeled CODD competitor used at 800 μM). Selective irradiation was applied at 30.5 ppm for [^13C]-2OG and 24.25 ppm for [^13C]-labeled CODD. Percentage displacement was calculated according to equation: (I−I0)/(Iblank−I0) where I 0 is the intensity of the reporter in the presence of protein but without inhibitor, I is the intensity of the reporter in the presence of protein and inhibitor, and I blank is the intensity of the reporter without protein or inhibitor.
The results reveal that the previously described inhibitor IOX2 displaces 2OG from PHD2 (S3A Fig), consistent with its predicted binding mode. […] Previous crystallographic studies have shown that the HIF substrate can still bind even when the 2OG active site is occupied by some, but not all, inhibitors.

A further series concerns the target T1, BBOX1 (Homo sapiens, UniProt O75936).
T1 sequence (O75936 1-387): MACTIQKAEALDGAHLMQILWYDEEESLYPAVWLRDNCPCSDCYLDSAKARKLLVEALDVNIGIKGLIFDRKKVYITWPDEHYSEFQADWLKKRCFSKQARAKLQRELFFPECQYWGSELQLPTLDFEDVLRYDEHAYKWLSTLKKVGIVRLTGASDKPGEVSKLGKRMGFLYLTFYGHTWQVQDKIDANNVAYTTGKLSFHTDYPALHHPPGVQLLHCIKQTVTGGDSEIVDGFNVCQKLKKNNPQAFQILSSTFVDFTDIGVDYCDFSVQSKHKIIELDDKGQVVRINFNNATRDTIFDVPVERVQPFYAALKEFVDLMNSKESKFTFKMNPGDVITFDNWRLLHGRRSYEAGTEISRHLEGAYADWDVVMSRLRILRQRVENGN
Also noted: method as in PMID 22730246. The following applies: cited from earlier work.

A further series has as its target T2, JMJD2C (KDM4C) (Homo sapiens, UniProt Q9H3R0).
T2 sequence (Q9H3R0 1-1056): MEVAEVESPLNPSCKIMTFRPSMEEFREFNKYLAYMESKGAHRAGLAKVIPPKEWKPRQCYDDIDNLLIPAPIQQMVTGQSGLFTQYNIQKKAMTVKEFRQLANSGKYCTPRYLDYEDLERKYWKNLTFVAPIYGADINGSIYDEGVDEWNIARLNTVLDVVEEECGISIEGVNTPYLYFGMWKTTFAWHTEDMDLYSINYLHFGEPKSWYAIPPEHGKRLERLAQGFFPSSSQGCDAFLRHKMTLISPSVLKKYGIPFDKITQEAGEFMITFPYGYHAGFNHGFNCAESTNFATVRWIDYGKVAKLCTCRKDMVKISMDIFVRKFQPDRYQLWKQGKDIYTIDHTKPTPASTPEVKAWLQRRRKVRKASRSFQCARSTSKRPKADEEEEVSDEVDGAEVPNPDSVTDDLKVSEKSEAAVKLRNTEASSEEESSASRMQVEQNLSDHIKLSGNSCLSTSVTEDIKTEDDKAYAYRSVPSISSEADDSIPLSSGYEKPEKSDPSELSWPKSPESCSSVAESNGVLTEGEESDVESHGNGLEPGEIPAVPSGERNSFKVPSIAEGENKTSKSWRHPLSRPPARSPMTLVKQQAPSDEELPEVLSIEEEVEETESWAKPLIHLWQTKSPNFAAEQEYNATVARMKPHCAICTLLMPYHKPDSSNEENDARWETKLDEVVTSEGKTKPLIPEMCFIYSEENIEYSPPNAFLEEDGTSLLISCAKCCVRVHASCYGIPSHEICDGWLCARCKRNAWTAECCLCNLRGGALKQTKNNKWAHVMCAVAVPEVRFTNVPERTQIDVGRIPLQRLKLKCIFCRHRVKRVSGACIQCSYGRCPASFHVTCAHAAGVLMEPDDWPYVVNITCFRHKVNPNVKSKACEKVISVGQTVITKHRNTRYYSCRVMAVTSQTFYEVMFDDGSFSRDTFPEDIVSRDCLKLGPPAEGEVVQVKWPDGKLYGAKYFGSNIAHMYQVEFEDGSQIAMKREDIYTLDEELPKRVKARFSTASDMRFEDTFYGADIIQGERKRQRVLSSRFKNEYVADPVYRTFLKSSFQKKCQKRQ
Also noted: method as in PMID 26682036. The following applies: cited from earlier work.

For a further series, the target named is FIH (Homo sapiens, UniProt Q9NWT6). Put plainly: FIH liquid chromatography-mass spectrometry assay (RapidFire).
For another series, the target named is T3, JMJD2A (KDM4A) (Homo sapiens, UniProt O75164).
T3 sequence (O75164 1-1064): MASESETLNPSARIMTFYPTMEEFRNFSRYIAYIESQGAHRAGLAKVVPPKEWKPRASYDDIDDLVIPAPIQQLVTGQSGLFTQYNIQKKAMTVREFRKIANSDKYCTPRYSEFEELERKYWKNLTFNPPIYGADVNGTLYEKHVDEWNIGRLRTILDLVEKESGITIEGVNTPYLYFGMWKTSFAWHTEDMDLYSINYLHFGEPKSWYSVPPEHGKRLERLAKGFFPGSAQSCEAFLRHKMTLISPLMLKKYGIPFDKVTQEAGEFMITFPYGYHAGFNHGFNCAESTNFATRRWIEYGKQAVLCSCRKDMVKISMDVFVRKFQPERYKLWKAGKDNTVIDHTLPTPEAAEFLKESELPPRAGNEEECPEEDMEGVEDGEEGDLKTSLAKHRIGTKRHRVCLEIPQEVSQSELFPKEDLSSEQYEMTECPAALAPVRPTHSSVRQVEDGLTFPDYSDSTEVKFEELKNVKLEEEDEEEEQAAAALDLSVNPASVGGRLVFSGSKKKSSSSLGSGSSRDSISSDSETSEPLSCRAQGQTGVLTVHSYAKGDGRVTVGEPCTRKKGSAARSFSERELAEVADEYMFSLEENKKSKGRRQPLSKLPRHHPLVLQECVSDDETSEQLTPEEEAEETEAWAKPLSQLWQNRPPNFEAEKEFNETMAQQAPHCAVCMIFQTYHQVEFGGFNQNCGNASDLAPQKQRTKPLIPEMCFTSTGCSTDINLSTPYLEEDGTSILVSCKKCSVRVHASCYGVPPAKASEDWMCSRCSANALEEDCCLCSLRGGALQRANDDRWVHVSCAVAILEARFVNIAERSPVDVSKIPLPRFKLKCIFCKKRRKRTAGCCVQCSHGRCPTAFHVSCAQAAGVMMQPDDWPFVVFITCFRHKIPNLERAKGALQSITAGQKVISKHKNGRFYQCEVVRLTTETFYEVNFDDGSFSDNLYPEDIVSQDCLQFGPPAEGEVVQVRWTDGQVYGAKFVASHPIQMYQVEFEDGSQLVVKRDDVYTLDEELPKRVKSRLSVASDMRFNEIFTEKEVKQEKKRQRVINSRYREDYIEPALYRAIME
Also noted: method as in PMID 26682036. The following applies: cited from earlier work.

[1] abbreviates: 1 h, equimolar: IOX2 37.7 mg/kg, IOX4 35 mg/kg, DMOG 75 mg/kg.

pIC50: −log10 of the molar value. Structures can show the parent of a compound that is named as a salt.

Sequence of PHD2 (Q9GZT9 whole entry): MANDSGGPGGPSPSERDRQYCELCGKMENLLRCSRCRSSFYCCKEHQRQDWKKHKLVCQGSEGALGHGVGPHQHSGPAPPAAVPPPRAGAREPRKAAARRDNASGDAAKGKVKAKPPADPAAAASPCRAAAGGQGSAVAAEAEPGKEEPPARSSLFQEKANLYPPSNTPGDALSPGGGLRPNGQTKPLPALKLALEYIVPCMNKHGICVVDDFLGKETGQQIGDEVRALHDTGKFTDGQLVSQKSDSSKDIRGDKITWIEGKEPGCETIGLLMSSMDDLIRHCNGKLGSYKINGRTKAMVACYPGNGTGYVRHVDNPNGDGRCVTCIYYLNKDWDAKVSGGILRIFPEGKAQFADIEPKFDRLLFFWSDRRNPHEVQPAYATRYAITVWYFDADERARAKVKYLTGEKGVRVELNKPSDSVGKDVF
Sequence of FIH (Q9NWT6 whole entry): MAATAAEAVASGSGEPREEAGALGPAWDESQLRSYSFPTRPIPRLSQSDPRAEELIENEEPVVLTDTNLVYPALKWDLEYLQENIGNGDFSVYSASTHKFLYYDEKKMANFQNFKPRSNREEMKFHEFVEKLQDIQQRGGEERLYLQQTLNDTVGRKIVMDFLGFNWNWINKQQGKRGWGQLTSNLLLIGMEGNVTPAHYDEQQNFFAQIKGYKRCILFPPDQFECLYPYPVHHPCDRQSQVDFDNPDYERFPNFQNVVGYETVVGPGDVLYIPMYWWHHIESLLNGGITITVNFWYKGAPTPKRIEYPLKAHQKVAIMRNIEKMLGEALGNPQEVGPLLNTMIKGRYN
Protocol for FIH: After 15 minutes, the enzyme reaction was stopped by the addition of 4 ml 10% formic acid and the reaction mixture transferred to a RapidFire RF360 high throughput sampling robot. Samples were aspirated under vacuum onto a C4 Solid Phase Extraction (SPE) cartridge. […] Ion chromatogram data was extracted for the non-hydroxylated peptide substrate and the hydroxylated peptide product and peak area data for extracted ion chromatograms were integrated using RapidFire Integrator software. Percentage conversion of substrate to product was calculated in Microsoft Excel and IC50 values were calculated using Graphpad Prism 5.

Consider `COC(=O)CNC(=O)C(=O)OC` [DMOG, dimethyloxalylglycine], for which, in the series with HIF1α and HIF2α (setting [1]), the “HIF1α and HIF2α induction in liver, kidney and heart” value is “induction of HIF1α and HIF2α”; the “HIF1α and HIF2α induction in the brain” value is “not”.

On to `O=C(O)Cc1cs/c(=N/C(=O)CS(=O)(=O)Cc2ccc3ccccc3c2)n1O` [BNS, bicyclic naphthalenylsulfone hydroxythiazole], for which, at PHD2, the “displacement of [13C]-2OG from PHD2” value is “displace both 2OG and CODD”; the “displacement of [13C]-CODD from PHD2” value is “displace both 2OG and CODD”.

In the case of `O=C(O)CNC(=O)C(=O)O` [NOG, N-oxalylglycine], the negative logarithm of the IC50 (pIC50) is 6.41 on BBOX1, 6.22 on JMJD2C (KDM4C), 5.64 at FIH and 6.70 at JMJD2A (KDM4A).

For `O=C(O)CNC(=O)c1nc(Cl)c2ccccc2c1O` [IOX3], the “HIF1α induction in mouse liver” value in the series on HIF1α and HIF2α (IOX2 37.7 mg/kg, IOX3 30 mg/kg (equivalent molar dose), 1 h and […]) was “lower and shorter induction of HIF1α”.

In the case of `O=C(O)c1ccc(-n2[nH]cc(-n3ccnn3)c2=O)nc1` (as salt: hydrochloride) [compound 1, 6-(5-oxo-4-(1H-1,2,3-triazol-1-yl)-2,5-dihydro-1H-pyrazol-1-yl)pyridine-3-carbocylic acid hydrochloride], the melting point was ≥ 316.6 °C (dec.).

Source of the values: PMC4492579, “Potent and Selective Triazole-Based Inhibitors of the Hypoxia-Inducible Factor Prolyl-Hydroxylases with Activity in the Murine Brain” (PLoS ONE, 2015).
